Inconclusive results and toxic doses are left out. How the source made its calls: active means survival T/C of 150% or more; inactive means T/C below 125% in these data.
Tested on: CD2F1 mice, L1210 leukemia ip, survival T/C
Experiment: NCI In Vivo Anticancer Drug Screen. Data for tumor model L1210 Leukemia (intraperitoneal) in CD2F1 (CDF1) mice
Details: endpoint: mean survival time, higher = longer survival
Summary of the method: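 Tumor-bearing mice (transplanted tumor) were split into treated and vehicle control groups, and the measured endpoint of each treated group was divided by that of its vehicle controls.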

[1] = dose: 100.0 mg/kg/injection, schedule: Q04DX002 (ip), vehicle: saline with Tween-80
[2] = dose: 200.0 mg/kg/injection, schedule: Q04DX002 (ip), vehicle: saline with Tween-80
[3] = dose: 400.0 mg/kg/injection, schedule: Q04DX002 (ip), vehicle: saline with Tween-80
[4] = dose: 100.0 mg/kg/injection, schedule: Q01DX009 (ip), vehicle: saline with Tween-80
[5] = dose: 100.0 mg/kg/injection, schedule: Q04DX003 (ip), vehicle: saline with Tween-80
[6] = dose: 200.0 mg/kg/injection, schedule: Q01DX009 (ip), vehicle: saline with Tween-80
[7] = dose: 200.0 mg/kg/injection, schedule: Q04DX003 (ip), vehicle: saline with Tween-80
[8] = dose: 400.0 mg/kg/injection, schedule: Q01DX009 (ip), vehicle: saline with Tween-80
[9] = dose: 400.0 mg/kg/injection, schedule: Q04DX003 (ip), vehicle: saline with Tween-80
[10] = dose: 12.5 mg/kg/injection, schedule: Q01DX009 (ip), vehicle: suspension in saline
[11] = dose: 25.0 mg/kg/injection, schedule: Q01DX009 (ip), vehicle: suspension in saline
[12] = dose: 50.0 mg/kg/injection, schedule: Q01DX009 (ip), vehicle: suspension in saline

Measured: T/C

Oc1ccc(/C=N/NC(=S)Nc2cccnc2)nc1
inactive: [1] 87 % of control | [2] 87 % of control | [3] 91 % of control

CC(=O)c1ccc(N=Nc2c(N)nc(N)nc2N)cc1
inactive: [4] 92 % of control | [5] 89 % of control | [6] 97 % of control | [7] 87 % of control | [8] 98 % of control | [9] 89 % of control

CCCCCC(CN(C)C)C(/C=C/c1ccccc1)OC(=O)c1ccc([N+](=O)[O-])cc1 (centres undefined)
inactive: [4] 97 % of control | [5] 90 % of control | [6] 100 % of control | [7] 105 % of control | [9] 106 % of control

Cc1nc(-c2ccc(N=Cc3ccc(N(CCOS(C)(=O)=O)CCOS(C)(=O)=O)cc3C)cc2)c(C)s1
inactive: dose: 5.0 mg/kg/injection, schedule: Q01DX001 (ip), vehicle: Klucel (hydroxypropylcellulose) (HPC) 101 % of control | dose: 10.0 mg/kg/injection, schedule: Q01DX001 (ip), vehicle: Klucel (hydroxypropylcellulose) (HPC) 104 % of control | dose: 20.0 mg/kg/injection, schedule: Q01DX001 (ip), vehicle: Klucel (hydroxypropylcellulose) (HPC) 104 % of control | dose: 40.0 mg/kg/injection, schedule: Q01DX001 (ip), vehicle: Klucel (hydroxypropylcellulose) (HPC) 115 % of control

O=c1nc(OCCO)c([N+](=O)[O-])c(C(Cl)(Cl)Cl)[nH]1
inactive: [5] 96 % of control | [7] 97 % of control | [9] 89 % of control

Fc1ccc(NC(=S)SCc2ccc(Cl)c(Cl)c2)cc1F
inactive: dose: 12.5 mg/kg/injection, schedule: Q01DX009 (ip), vehicle: saline 98 % of control | [10] 98 % of control | dose: 25.0 mg/kg/injection, schedule: Q01DX009 (ip), vehicle: saline 101 % of control | [11] 108 % of control | dose: 50.0 mg/kg/injection, schedule: Q01DX009 (ip), vehicle: Klucel (hydroxypropylcellulose) (HPC) 112 % of control | dose: 50.0 mg/kg/injection, schedule: Q01DX009 (ip), vehicle: saline 98 % of control | [12] 103 % of control | dose: 100.0 mg/kg/injection, schedule: Q01DX009 (ip), vehicle: Klucel (hydroxypropylcellulose) (HPC) 107 % of control | dose: 100.0 mg/kg/injection, schedule: Q01DX009 (ip), vehicle: saline 95 % of control | dose: 100.0 mg/kg/injection, schedule: Q01DX009 (ip), vehicle: suspension in saline 104 % of control | dose: 200.0 mg/kg/injection, schedule: Q01DX009 (ip), vehicle: Klucel (hydroxypropylcellulose) (HPC) 91 % of control

C[C@@H]1C[C@H]2[C@@H]3CCC4=CC(=O)C=C[C@]4(C)[C@@]3(F)[C@@H](O)C[C@]2(C)[C@@]1(O)C(=O)CO
inactive: dose: 3.12 mg/kg/injection, schedule: Q01DX009 (ip), vehicle: suspension in saline 116 % of control | dose: 6.25 mg/kg/injection, schedule: Q01DX009 (ip), vehicle: suspension in saline 108 % of control | [10] 108 % of control | [11] 122 % of control | [12] 110 % of control

CCOC(=O)/C=C1\NC(=O)CS1
inactive: [4] 97 % of control | [5] 100 % of control | [6] 95 % of control | [7] 100 % of control | [8] 103 % of control | [9] 100 % of control

COc1ccc([N+](=O)[O-])cc1NC(=O)Nc1ccccc1C
inactive: [1] 92 % of control | [2] 88 % of control | [3] 95 % of control

C=COCCCCCCCCCCCCCCCCCC
inactive: dose: 100.0 mg/kg/injection, schedule: Q04DX003 (ip), vehicle: other 108 % of control | dose: 200.0 mg/kg/injection, schedule: Q04DX003 (ip), vehicle: other 108 % of control | dose: 400.0 mg/kg/injection, schedule: Q04DX003 (ip), vehicle: other 98 % of control
